Source: article PMC7238120, “Strong and Selective Inhibitory Effects of the Biflavonoid Selamariscina A against CYP2C8 and CYP2C9 Enzyme Activities in Human Liver Microsomes” (Pharmaceutics, 2020)

Tests used:
Format in all cases: in vitro ADME
other P450 isoforms = test: Nine-P450 cocktail inhibition in human liver microsomes, statements on the other P450 isoforms; settings: inhibitor 5 μM; HLMs
Experimental: (§1) The inhibitory potential of the five biflavonoids on the metabolism of nine P450 probe substrates was evaluated using previously developed methods with minor modifications. Biflavonoids were dissolved in methanol. The final concentration of methanol in the incubation mixture was 1.0% (v/v). We used these P450 probe substrates: phenacetin for CYP1A2, coumarin for CYP2A6, bupropion for CYP2B6, amodiaquine for CYP2C8, diclofenac for CYP2C9, omeprazole for CYP2C19, dextromethorphan for CYP2D6, chlorzoxazone for CYP2E1 and midazolam for CYP3A (Table 1). The incubation mixtures containing pooled human liver microsomes (HLMs, XTreme 200, XenoTech), P450 probe substrates, and inhibitor (0~20 µM) were pre-incubated at 37 °C for 5 min. The concentration range of the inhibitor varied (0, 0.002, 0.005, 0.02, 0.05, and 0.2 µM for CYP2C8; 0, 0.02, 0.05, 0.2, 0.5, and 2 µM for CYP2C9; 0, 0.5, 2, 5, 10, and 20 µM for other P450 isoforms). After pre-incubation, a reduced nicotinamide adenine dinucleotide phosphate (NADPH) generation system containing 1 unit/ml G6PDH, 1.3 mM β- nicotinamide adenine dinucleotide phosphate (β- NADP^+), 3.3 mM MgCl2, and 3.3 mM G6P was added to initiate a reaction, and further incubated for 10 min at 37 °C. The reaction was stopped by adding 50 μL of ice-cold acetonitrile containing 7 nM trimipramine (internal standard, IS). After centrifugation at 18,000 g (5 min, 4 °C), aliquots of supernatants were analyzed by LC–MS/MS (Shimadzu LCMS 8060 system, Shimadzu, Kyoto, Japan). All microsomal incubations were conducted in triplicate.
(§2) All metabolites and the IS were separated on a Kinetex XB-C18 column (100 × 2.10 mm, 2.6 μm, 100 Å; Phenomenex, Torrance, CA, USA) and analyzed using a Shimadzu LCMS 8060 triple-quadrupole mass spectrometer coupled with a Nexera X2 ultra high-performance liquid chromatography system (Shimadzu, Kyoto, Japan) equipped with an electrospray ionization interface. The mobile phase consisted of 0.1% formic acid in water (A) and 0.1% formic acid in acetonitrile (B). […] Electrospray ionization was performed in positive-ion mode at 4000 V or in negative-ion mode at −3500 V. The optimum operating conditions were determined as follows: vaporizer temperature, 300 °C; capillary temperature, 350 °C; collision gas (argon) pressure, 1.5 mTorr. Quantitation was conducted in selected reaction monitoring (SRM) modes with the precursor-to-product ion transition for each metabolite (Table 1 and Table 2).
(§3) We analyzed the data with Shimadzu LabSolution LC–MS software. The IC50 values were calculated by WinNonlin software (Pharsight, Mountain View, CA, USA). […]

[1] = tested on: the other eight P450 enzymes (isoforms other than CYP2C8); test: as above; settings: human, pooled human liver microsomes; isoforms other than CYP2C8; HLMs
Experimental: as §1, §2, §3

[2] = tested on: CYP2C8 and CYP2C9 versus seven other P450s (CYP1A2, 2A6, 2B6, 2C19, 2D6, 2E1, 3A); test: as above; settings: human, pooled human liver microsomes; amodiaquine and diclofenac activities versus seven other P450s
Experimental: as §1, §2, §3

[3] = tested on: other P450 isoforms (other than CYP2C8 and CYP2C9); test: as above; settings: human, pooled human liver microsomes; inhibitor 0.5 μM; HLMs; isoforms other than CYP2C8 and CYP2C9; read-out: Inhibition of the other P450 isoform-specific activities
Experimental: as §1, §2, §3

CYP2C9 = CYP2C9 (Homo sapiens, UniProt P11712); test: Inhibition of CYP2C9-catalyzed tolbutamide 4-hydroxylation in human liver microsomes; set-up: incubation mixtures containing pooled human liver microsomes (HLMs, XTreme 200, XenoTech); tissue XenoTech XTreme 200; host or cells: pooled human liver microsomes; settings: HLMs
From the text: We used HLMs to determine the mechanisms and constants (Ki values) for […] A inhibition of CYP1A2, CYP2B6, CYP2C8, CYP2C9 and CYP3A. […] The substrates were used at concentrations approximately near to their respective Km values. […] The other conditions were the same as in the cytochrome P450 inhibition study. […] Phenomenex, Torrance, CA, USA) and analyzed using a Shimadzu LCMS 8060 triple-quadrupole mass spectrometer coupled with a Nexera X2 ultra high-performance liquid chromatography system (Shimadzu, Kyoto, Japan) equipped with an electrospray ionization interface. The mobile phase consisted of 0.1% formic acid in water (A) and 0.1% formic acid in acetonitrile (B). […] The flow rate was 0.2 mL/min. Electrospray ionization was performed in positive-ion mode at 4000 V or in negative-ion mode at -3500 V. The optimum operating conditions were determined as follows: vaporizer temperature, 300 °C; capillary temperature, 350 °C; collision gas (argon) pressure, 1.5 mTorr. Quantitation was conducted in selected reaction monitoring (SRM) modes with the precursor-to-product ion transition for each metabolite (Table 1 and Table 2). We analyzed the data with Shimadzu LabSolution LC-MS software. The IC50 values were calculated by WinNonlin software (Pharsight, Mountain View, CA, USA). […]

CYP2C9, sequence (P11712 whole entry): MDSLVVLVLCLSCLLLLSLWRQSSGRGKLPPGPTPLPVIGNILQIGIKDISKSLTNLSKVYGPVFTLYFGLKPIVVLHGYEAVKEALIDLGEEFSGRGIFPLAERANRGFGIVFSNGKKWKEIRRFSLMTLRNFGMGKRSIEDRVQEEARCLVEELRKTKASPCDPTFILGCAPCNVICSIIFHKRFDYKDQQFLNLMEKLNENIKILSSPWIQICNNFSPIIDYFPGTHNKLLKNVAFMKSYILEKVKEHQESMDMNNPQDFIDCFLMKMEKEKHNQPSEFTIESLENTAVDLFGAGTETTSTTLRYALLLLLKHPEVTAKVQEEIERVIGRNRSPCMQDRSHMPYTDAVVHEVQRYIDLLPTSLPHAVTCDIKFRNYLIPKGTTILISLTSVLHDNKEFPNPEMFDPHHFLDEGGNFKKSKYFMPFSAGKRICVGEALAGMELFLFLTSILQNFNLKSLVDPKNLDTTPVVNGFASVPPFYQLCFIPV

Compound	Inhibition of the other six P450 isoforms (other P450 isoforms)	IC50 at 10 min [1] [nM]	selectivity ratio at 10 min [2]	inhibition at 10 min, 0.5 µM [3] [%]	Mode of Inhibition, CYP2C9 tolbutamide (CYP2C9)	Ki (CYP2C9; average ± standard error, triplicate) [nM]
CC(C)(O)c1ccccc1CC[C@@H](SCC1(CC(=O)O)CC1)c1cccc(/C=C/c2ccc3ccc(Cl)cc3n2)c1 [montelukast, reference compound]	negligible inhibition	> 9730	–	–	–	–
O=C1CC(c2cc(-c3c(O)ccc4c(=O)cc(-c5ccc(O)cc5)oc34)c(O)cc2O)Oc2cc(O)cc(O)c21 (stereo not drawn) [selamariscina A]	–	–	> 50	≤ 21.8	Noncompetitive	65 ± 10
